# Data reported in patent US10426765B2, “Pharmaceutical composition containing nicotinic acid and/or nicotinamide and/or tryptophan for positively influencing the intestinal microbiota” (CONARIS RESEARCH INSTITUTE AG, priority 2012, dated 2019).
# Tests used:
# [1] = cited from earlier work
# [2] = system: Crohn's disease; experiment: Crohn's disease activity index (CDAI) in patients treated with nicotinamide (Example 2); format: in vivo, human; details: three Crohn's disease patients
# Text: A value of CDAI<150 is equivalent to remission.
# [3] = system: DSS colitis in ACE2-deficient mice; experiment: DSS colitis in ACE2-deficient mice given nicotinamide or tryptophan dipeptides (Example 1); format: in vivo; details: prophylactic and permanent administration
# Text: Top row: histopathology of the colon (haematoxylin eosin staining on day 10 after DSS administration; bar: 100 μm (a)), weight loss in percent (b) and diarrhea score (c) of DSS-challenged ACE2-normal (ACE2+/y) and ACE2-deficient (ACE2-/y) mice which were given vehicle or nicotinamide (NAM) in the drinking water. The NAM administration began 3 days before the DSS administration. Bottom row: histopathology of the colon (haematoxylin eosin staining on day 7 after DSS challenge; bar: 100 μm (d)), weight loss in percent (e) and damage of the crypts of the colon (f) in DSS-challenged ACE2-normal (ACE2+/y) and ACE2-deficient (ACE2-/y) mice which received normal diet (control) or a tryptophan-dipeptide diet (Trp+). New and findings unpublished at the time the priority application was filed, since published as Hashimoto et al. (Nature 2012, 487:477), support the teachings of the present invention and are briefly described here for the purpose of illustration: It is known that the expression of the transporter for neutral amino acids B^0 AT1 (which transports tryptophan) on the surface of intestinal epithelial cells is bound to the presence of the angiotensin converting enzyme 2 (ACE2) (Kowalczuk et al. 2008, FASEB J. 22:2880; Camargo et al. 2009, Gastroenterology 136:872). […]
compound,measurement,setting,value
NC(=O)c1cccnc1 [nicotinamide],water solubility,[1],high water solubility
same,response of Crohn's disease activity index (CDAI),[2]; conventionally formulated nicotinamide 2×600 mg daily for 4 weeks,clear response
same,remission (CDAI<150) within the therapy period,[2]; nicotinamide 2×600 mg daily for 4 weeks,two of them achieved the remission
same,intensification of DSS-induced intestinal inflammation in Ace2-/y mice,[3],reduce this effect
